# Assay: In-vivo radioactivity distribution experiment using normal mice (Example 2)
# Conditions: normal mice, intravenous, Example 2 numbering
# Experimental: Radioactive iodine labeling compounds were diluted with physiological saline containing 10% EtOH. To each of four or five 5-week-old male ddY mice (20 to 25 g) per group, […] of a labeled compound, [^125I]Compound 7, 10, 13, or 14 (0.2 to 0.4 mCi), was administered from the caudal vein. Animals were decapitated at 2, 10, 30, or 60 min, blood was collected, the major organs were isolated, and then weights and radioactivities thereof were measured.
smiles,measurement,setting,value
"CNc1ccc(C(=O)/C=C/c2ccc(I)cc2)cc1 [Compound 7 in Example 2, 4-iodo-4′-methylaminochalcone]",In-vivo radioactivity distribution: blood,2 min,1.76 (0.27) percent of the dose/g
same,In-vivo radioactivity distribution: brain,2 min,3.07 (0.57) percent of the dose/g
same,In-vivo radioactivity distribution: heart,2 min,5.00 (0.79) percent of the dose/g
same,In-vivo radioactivity distribution: intestine,2 min,2.52 (0.81) percent of the dose/g
same,In-vivo radioactivity distribution: kidney,2 min,6.20 (0.93) percent of the dose/g
same,In-vivo radioactivity distribution: liver,2 min,10.82 (2.61) percent of the dose/g
same,In-vivo radioactivity distribution: lung,2 min,11.10 (3.36) percent of the dose/g
same,In-vivo radioactivity distribution: pancreas,2 min,4.93 (1.01) percent of the dose/g
same,In-vivo radioactivity distribution: spleen,2 min,2.27 (0.48) percent of the dose/g
same,In-vivo radioactivity distribution: stomach,2 min,1.06 (0.67) percent of the dose
same,In-vivo radioactivity distribution: blood,10 min,1.43 (0.30) percent of the dose/g
same,In-vivo radioactivity distribution: brain,10 min,2.03 (0.41) percent of the dose/g
same,In-vivo radioactivity distribution: heart,10 min,1.98 (0.24) percent of the dose/g
same,In-vivo radioactivity distribution: intestine,10 min,7.78 (1.31) percent of the dose/g
same,In-vivo radioactivity distribution: kidney,10 min,4.56 (0.67) percent of the dose/g
same,In-vivo radioactivity distribution: liver,10 min,9.42 (1.92) percent of the dose/g
same,In-vivo radioactivity distribution: lung,10 min,4.94 (1.73) percent of the dose/g
same,In-vivo radioactivity distribution: pancreas,10 min,2.99 (1.70) percent of the dose/g
same,In-vivo radioactivity distribution: spleen,10 min,1.47 (0.27) percent of the dose/g
same,In-vivo radioactivity distribution: stomach,10 min,0.87 (0.38) percent of the dose
same,In-vivo radioactivity distribution: blood,30 min,1.15 (0.57) percent of the dose/g
same,In-vivo radioactivity distribution: brain,30 min,0.69 (0.09) percent of the dose/g
same,In-vivo radioactivity distribution: heart,30 min,0.98 (0.20) percent of the dose/g
same,In-vivo radioactivity distribution: intestine,30 min,17.52 (1.74) percent of the dose/g
same,In-vivo radioactivity distribution: kidney,30 min,3.92 (1.05) percent of the dose/g
same,In-vivo radioactivity distribution: liver,30 min,6.77 (1.21) percent of the dose/g
same,In-vivo radioactivity distribution: lung,30 min,2.22 (0.58) percent of the dose/g
same,In-vivo radioactivity distribution: pancreas,30 min,1.04 (0.35) percent of the dose/g
same,In-vivo radioactivity distribution: spleen,30 min,0.94 (0.48) percent of the dose/g
same,In-vivo radioactivity distribution: stomach,30 min,0.70(0.11) percent of the dose
same,In-vivo radioactivity distribution: blood,60 min,1.51 (0.26) percent of the dose/g
same,In-vivo radioactivity distribution: brain,60 min,0.40 (0.08) percent of the dose/g
same,In-vivo radioactivity distribution: heart,60 min,0.82 (0.14) percent of the dose/g
same,In-vivo radioactivity distribution: intestine,60 min,18.47 (2.31) percent of the dose/g
same,In-vivo radioactivity distribution: kidney,60 min,4.04 (1.10) percent of the dose/g
same,In-vivo radioactivity distribution: liver,60 min,6.01 (1.81) percent of the dose/g
same,In-vivo radioactivity distribution: lung,60 min,1.57 (0.23) percent of the dose/g
same,In-vivo radioactivity distribution: pancreas,60 min,0.78 (0.16) percent of the dose/g
same,In-vivo radioactivity distribution: spleen,60 min,0.71 (0.19) percent of the dose/g
same,In-vivo radioactivity distribution: stomach,60 min,1.14 (0.48) percent of the dose

# From US20100278733A1, “COMPOSITION FOR DIAGNOSIS OF AMYLOID-RELATED DISEASE” (priority 2007, published 2010)
